Assays:
[1] = test system: Trichostrongylus colubriformis; assay: Jird efficacy model; format: in vivo; settings: for inhibition in vivo at 10 mg/kg: Trichostrongylus colubriformis, sc, 96 h, read-out: Jird % (percentage efficacy)
[2] = test system: Haemonchus contortus L3; assay: microbe, parasite or virus in culture; format: cell-based; settings: for minimal effective concentration: Haemonchus contortus, 96 h, read-out: HcL3 Minimal Effective Concentration (MEC)
[3] = test system: D. immitis microfilariae; assay: Dirofilaria immitis, microfilariae (DiMF) in vitro motility assay; format: cell-based; settings: for minimal effective concentration: Dirofilaria immitis, 72 h, read-out: DiMF minimally effective dose (MEC)

For `O=C(NCc1ccnc(Cl)c1)n1c2c(c3cc(Cl)ccc31)CN(C/C=C/c1ccc(F)c(Cl)c1)CC2` [Example 239, (E)-8-chloro-2-(3-(3-chloro-4-fluorophenyl)allyl)-N-((2-chloropyridin-4-yl)methyl)-1,2,3,4-tetrahydro-5H-pyrido[4,3-b]indole-5-carboxamide], the inhibition in vivo at 10 mg/kg [1] was 98%, the minimal effective concentration [2] was 0.3 µM and the minimal effective concentration [3] was 3.3 µM.
With `N#Cc1ccc2c3c(n(C(=O)NCc4ccnc(Cl)c4)c2c1)CCN(C/C=C/c1c(F)cc(Cl)cc1F)C3` [Example 6, (E)-2-(3-(4-chloro-2,6-difluorophenyl)allyl)-N-((2-chloropyridin-4-yl)methyl)-7-cyano-1,2,3,4-tetrahydro-5H-pyrido[4,3-b]indole-5-carboxamide] the inhibition in vivo at 10 mg/kg [1] was 99%, the minimal effective concentration [2] was 2.4 µM and the minimal effective concentration [3] was 18.2 µM.
`N#Cc1ccc(/C=C/CN2CCc3c(c4cc(C(F)(F)F)ccc4n3C(=O)NCc3ccnc(F)c3)C2)cc1` [Example 420, (E)-2-(3-(4-cyanophenyl)allyl)-N-((2-fluoropyridin-4-yl)methyl)-8-(trifluoromethyl)-1,2,3,4-tetrahydro-5H-pyrido[4,3-b]indole-5-carboxamide] showed an inhibition in vivo at 10 mg/kg [1] of 100%, a minimal effective concentration [2] of 2.8 µM and a minimal effective concentration [3] of 14.1 µM.
With `N#Cc1ccc(/C=C/CN2CCc3c(c4cc(OC(F)(F)F)ccc4n3C(=O)NCc3ccnc(Cl)c3)C2)cc1` [Example 390, (E)-N-((2-chloropyridin-4-yl)methyl)-2-(3-(4-cyanophenyl)allyl)-8-(trifluoromethoxy)-1,2,3,4-tetrahydro-5H-pyrido[4,3-b]indole-5-carboxamide] the inhibition in vivo at 10 mg/kg [1] was 100%, the minimal effective concentration [2] was 0.5 µM and the minimal effective concentration [3] was 18.2 µM.
`N#Cc1ccc(/C=C/CN2CCc3c(c4ccc(C(F)(F)F)cc4n3C(=O)NCc3ccnc(Cl)c3)C2)cc1` [Example 155, (E)-N-((2-chloropyridin-4-yl)methyl)-2-(3-(4-cyanophenyl)allyl)-7-(trifluoromethyl)-1,2,3,4-tetrahydro-5H-pyrido[4,3-b]indole-5-carboxamide] was tested, and the inhibition in vivo at 10 mg/kg [1] was 100%, the minimal effective concentration [2] was 1 µM and the minimal effective concentration [3] was 22.6 µM.
With `N#Cc1ccc2c3c(n(C(=O)NCc4ccnc(Cl)c4)c2c1)CCN(C/C=C/c1ccc(Cl)cc1Cl)C3` [Example 3, (E)-N-[(2-chloro-4-pyridyl)methyl]-7-cyano-2-[(E)-3-(2,4-dichlorophenyl)allyl]-3,4-dihydro-1H-pyrido[4,3-b]indole-5-carboxamide] the “Jird % (percentage efficacy)” value ([1]; Mongolian gerbil (jird) infected with T. colubriformis, 10 mg/kg subcutaneous, worm count approximately four days after dosing) was 99%, the “HcL3 Minimal Effective Concentration (MEC)” value [2] was 1.0 µM and the “DiMF minimally effective dose (MEC)” value ([3]; decrease in microfilariae motility by subjective visual assessment, observed at 72 hours) was 18.2 µM.
For `N#Cc1ccc2c(c1)c1c(n2C(=O)NCc2ccnc(F)c2)CCN(C/C=C/c2ccc(F)cc2F)C1` [Example 115, (E)-8-cyano-2-(3-(2,4-difluorophenyl)allyl)-N-((2-fluoropyridin-4-yl)methyl)-1,2,3,4-tetrahydro-5H-pyrido[4,3-b]indole-5-carboxamide], the inhibition in vivo at 10 mg/kg [1] was 100%, the minimal effective concentration [2] was 0.1 µM and the minimal effective concentration [3] was 3.3 µM.
For `CS(=O)(=O)c1ccc2c(c1)c1c(n2C(=O)NCc2ccnc(Cl)c2)CCN(C/C=C/c2ccc(F)cc2)C1` [Example 459, (E)-N-((2-chloropyridin-4-yl)methyl)-2-(3-(4-fluorophenyl)allyl)-8-(methylsulfonyl)-1,2,3,4-tetrahydro-5H-pyrido[4,3-b]indole-5-carboxamide], the inhibition in vivo at 10 mg/kg [1] was 92%, the minimal effective concentration [2] was 1 µM and the minimal effective concentration [3] was 5.7 µM.
With `N#Cc1ccc2c3c(n(C(=O)NCc4ccnc(Cl)c4)c2c1)CCN(C/C=C/c1cccc(F)c1F)C3` [Example 32, (E)-N-((2-chloropyridin-4-yl)methyl)-7-cyano-2-(3-(2,3-difluorophenyl)allyl)-1,2,3,4-tetrahydro-5H-pyrido[4,3-b]indole-5-carboxamide] the inhibition in vivo at 10 mg/kg [1] was 100%, the minimal effective concentration [2] was 1.8 µM and the minimal effective concentration [3] was 18.2 µM.
For `N#Cc1ccc2c(c1)c1c(n2C(=O)NCc2ccnc(F)c2)CCN(C/C=C/c2ccc(F)c(Br)c2)C1` [Example 109, (E)-2-(3-(3-bromo-4-fluorophenyl)allyl)-8-cyano-N-((2-fluoropyridin-4-yl)methyl)-1,2,3,4-tetrahydro-5H-pyrido[4,3-b]indole-5-carboxamide], the inhibition in vivo at 10 mg/kg [1] was 99%, the minimal effective concentration [2] was 1.22 µM and the minimal effective concentration [3] was 18.2 µM.
Work on `O=C(NCc1ccnc(F)c1)n1c2c(c3cc(F)c(Cl)cc31)CN(C/C=C/c1ccc(F)c(F)c1)CC2` [Example 314, (E)-7-chloro-2-(3-(3,4-difluorophenyl)allyl)-8-fluoro-N-((2-fluoropyridin-4-yl)methyl)-1,2,3,4-tetrahydro-5H-pyrido[4,3-b]indole-5-carboxamide] yielded an inhibition in vivo at 10 mg/kg [1] of 100%, a minimal effective concentration [2] of 1 µM and a minimal effective concentration [3] of 3.3 µM.
For `N#Cc1ccc2c3c(n(C(=O)NCc4ccnc(Cl)c4)c2c1)CCN(C/C=C/c1cc(F)c(Cl)c(F)c1)C3` [Example 1, (E)-2-(3-(4-chloro-3,5-difluorophenyl)allyl)-N-((2-chloropyridin-4-yl)methyl)-7-cyano-1,2,3,4-tetrahydro-5H-pyrido[4,3-b]indole-5-carboxamide], the inhibition in vivo at 10 mg/kg [1] was 100%, the minimal effective concentration [2] was 0.2 µM and the minimal effective concentration [3] was 0.2 µM.
`O=C(NCc1ccnc(F)c1)n1c2c(c3c(Cl)cccc31)CN(C/C=C/c1ccc(Cl)cc1)CC2` [Example 230, (E)-9-chloro-2-(3-(4-chlorophenyl)allyl)-N-((2-fluoropyridin-4-yl)methyl)-1,2,3,4-tetrahydro-5H-pyrido[4,3-b]indole-5-carboxamide] showed an inhibition in vivo at 10 mg/kg [1] of 100%, a minimal effective concentration [2] of 1.8 µM and a minimal effective concentration [3] of 10 µM.
Compound `O=C(NCc1ccnc(Cl)c1)n1c2c(c3cc(Cl)ccc31)CN(C/C=C/c1ccc(F)cc1F)CC2` [Example 238, (E)-8-chloro-N-((2-chloropyridin-4-yl)methyl)-2-(3-(2,4-difluorophenyl)allyl)-1,2,3,4-tetrahydro-5H-pyrido[4,3-b]indole-5-carboxamide] has an inhibition in vivo at 10 mg/kg [1] of 100%, a minimal effective concentration [2] of 1 µM and a minimal effective concentration [3] of 5.7 µM.
Compound `N#Cc1ccc2c3c(n(C(=O)NCc4ccnc(Cl)c4)c2c1)CCN(C/C=C/c1ccc(F)cc1)C3` [Example 36, (E)-N-((2-chloropyridin-4-yl)methyl)-7-cyano-2-(3-(4-fluorophenyl)allyl)-1,2,3,4-tetrahydro-5H-pyrido[4,3-b]indole-5-carboxamide] has an inhibition in vivo at 10 mg/kg [1] of 100%, a minimal effective concentration [2] of 5.7 µM and a minimal effective concentration [3] of 3.3 µM.
Compound `N#Cc1ccc2c(c1)c1c(n2C(=O)NCc2ccnc(F)c2)CCN(C/C=C/c2ccc(Cl)c(Cl)c2)C1` [Example 122, (E)-8-cyano-2-(3-(3,4-dichlorophenyl)allyl)-N-((2-fluoropyridin-4-yl)methyl)-1,2,3,4-tetrahydro-5H-pyrido[4,3-b]indole-5-carboxamide] has an inhibition in vivo at 10 mg/kg [1] of 100%, a minimal effective concentration [2] of 1 µM and a minimal effective concentration [3] of 18.2 µM.
Work on `N#Cc1ccc2c3c(n(C(=O)NCc4ccnc(Cl)c4)c2c1)CCN(C/C=C/c1ccc(Cl)c(F)c1)C3` [Example 2, (E)-2-(3-(4-chloro-3-fluorophenyl)allyl)-N-((2-chloropyridin-4-yl)methyl)-7-cyano-1,2,3,4-tetrahydro-5H-pyrido[4,3-b]indole-5-carboxamide] yielded an inhibition in vivo at 10 mg/kg [1] of 100%, a minimal effective concentration [2] of 1.6 µM and a minimal effective concentration [3] of 4.8 µM.
`O=C(NCc1ccnc(F)c1)n1c2c(c3ccc(C(F)(F)F)cc31)CN(C/C=C/c1ccc(Cl)c(F)c1)CC2` [Example 163, (E)-2-(3-(4-chloro-3-fluorophenyl)allyl)-N-((2-fluoropyridin-4-yl)methyl)-7-(trifluoromethyl)-1,2,3,4-tetrahydro-5H-pyrido[4,3-b]indole-5-carboxamide] was tested, and the inhibition in vivo at 10 mg/kg [1] was 100%, the minimal effective concentration [2] was 1.8 µM and the minimal effective concentration [3] was 5.7 µM.
Work on `O=C(NCc1ccnc(F)c1)n1c2c(c3cc(C(F)(F)F)ccc31)CN(C/C=C/c1ccc(Cl)cc1)CC2` [Example 421, (E)-2-(3-(4-chlorophenyl)allyl)-N-((2-fluoropyridin-4-yl)methyl)-8-(trifluoromethyl)-1,2,3,4-tetrahydro-5H-pyrido[4,3-b]indole-5-carboxamide] yielded an inhibition in vivo at 10 mg/kg [1] of 100%, a minimal effective concentration [2] of 3.3 µM and a minimal effective concentration [3] of 12.7 µM.
`N#Cc1ccc2c3c(n(C(=O)NCc4ccnc(Br)c4)c2c1)CCN(C/C=C/c1ccc(Cl)c(F)c1)C3` [Example 41, (E)-N-((2-bromopyridin-4-yl)methyl)-2-(3-(4-chloro-3-fluorophenyl)allyl)-7-cyano-1,2,3,4-tetrahydro-5H-pyrido[4,3-b]indole-5-carboxamide] gave an inhibition in vivo at 10 mg/kg [1] of 100%, a minimal effective concentration [2] of 0.3 µM and a minimal effective concentration [3] of 5.7 µM.
Work on `O=C(NCc1ccnc(F)c1)n1c2c(c3ccc(OC(F)(F)F)cc31)CN(C/C=C/c1ccc(Cl)cc1)CC2` [Example 379, (E)-2-(3-(4-chlorophenyl)allyl)-N-((2-fluoropyridin-4-yl)methyl)-7-(trifluoromethoxy)-1,2,3,4-tetrahydro-5H-pyrido[4,3-b]indole-5-carboxamide] yielded an inhibition in vivo at 10 mg/kg [1] of 100%, a minimal effective concentration [2] of 1 µM and a minimal effective concentration [3] of 5.7 µM.
`N#Cc1ccc2c(c1)c1c(n2C(=O)NCc2ccnc(F)c2)CCN(C/C=C/c2cc(Br)ccc2F)C1` [Example 108, (E)-2-(3-(5-bromo-2-fluorophenyl)allyl)-8-cyano-N-((2-fluoropyridin-4-yl)methyl)-1,2,3,4-tetrahydro-5H-pyrido[4,3-b]indole-5-carboxamide] showed an inhibition in vivo at 10 mg/kg [1] of 100%, a minimal effective concentration [2] of 2.4 µM and a minimal effective concentration [3] of 3.2 µM.

Source: patent US10570129B2 (Zoetis Services LLC, priority 2015, dated 2020)
